Reference: US20060135587A1, “Method and compounds for promoting healing and reducing inflammation” (priority 2002, published 2006)

Legend:
myocardial infarction = test: Clinical comparison of Compound 2 and Riboxin in subacute myocardial infarction (Example 25); type: in vivo, human
Experimental: A total of 94 patients were examined; of these:
Conventional therapy as for example 24 was given to 30 patients. Each patient continued to receive the treatment which s/he had been given prior to commencement of the trial. Compound 2 was administered in addition to the previous treatment.
All the patients underwent standard laboratory tests prior to commencement of Compound 2 therapy, 14 days after the beginning of the course and upon completion of the course. The tests included clinical blood analysis; general urine analysis; evaluation of creatinine, bilirubin, transaminase activity, blood sugar, cholesterol and β-lipoproteins, malonic dialdehyde, Schiff bases, zinc, iron, copper, plasma potassium and sodium, prothrombin and fibrinogen; and an ECG examination in dynamics.
All the patients received conventional therapy, i.e. nitrates, anticoagulants and/or hypotensive agents as appropriate.
Combination therapy included Compound 2 (1st group—32 patients) or Riboxin (2nd group—18 patients). The agents were administered at a dose of 200 mg three times per day.

[1] = system: neurogenic dystrophy of the myocardium; test: Myocardial infarction model (electrostimulation of aortic arch), creatine phosphate in rat myocardium; type: in vivo, rats
From the text: The effect of Compound 2 on myocardial tissue in an experimental model of myocardial infarction was examined. In this model system neurogenic dystrophy of the myocardium was induced in rats or rabbits by electrical stimulation of the reflexogenic zone of the aortic arch by implanted electrodes for a period of three hours. […] These changes are accompanied by changes in biochemical indicators such as creatine phosphate, cAMP, and calcium ion concentrations, and changes in the activity of redox enzymes such as succinate dehydrogenase, lactate dehydrogenase, and glucose-6-phosphate dehydrogenase. At a later stage organic lesions of the myocardium such as necrotic and fibrosclerotic foci can be observed.
The effect of Compound 2 given intraperitoneally or orally on these indicators was examined in rats and rabbits following electrostimulation as described above. The effects on levels of creatine phosphate in rat myocardial are shown in Table 19, and the effects on adenosine triphosphatase (ATPase), succinate dehydrogenase and glucose-6-phosphate dehydrogenase rabbit myocardium are shown in Table 20. The effects on cAMP and Ca^++ levels in rabbit myocardial tissue are shown in FIG. 5, and effects on creatine kinase in rabbit myocardium and blood and the levels of creatine phosphate in myocardium are shown in FIG. 6.

[2] = system: full-thickness skin wounds; test: Morphological assessment of the wound healing stages; type: in vivo, rats; settings: Day 15
From the text: An important indicator of wound healing is the morphology and epithelialization of the wound surface (Sarkisov et al, 1981). Samples were taken from experimental animals on the fifth, tenth and fifteenth days of the study described in Example 13, which roughly correspond to the three wound healing stages: the first traumatic inflammation stage is complete by the fifth day, the granulation tissue development stage is complete by the tenth day, and cicatrisation and epithelialization take place from the fifteenth to twentieth days. The results are illustrated in FIG. 1.
A comparative assessment of the healing of a full-thickness wound was performed on the basis of a set of morphological indicators characterising the regeneration process: […]

[3] = system: lesions of the gastric mucosa; test: Gastric lesions induced by electrostimulation of immobilised rats; type: in vivo
Experimental: The models used gastric ulcers induced by
a) Electrostimulation of immobilised rats for 3 hours;
The compounds were administered intraperitoneally at a dose of 20 mg/kg; in the cryogenic ulcer model compound 2 was administered either intraperitoneally (10 mg/kg) or orally (20 mg/kg twice daily, ie. a total of 40 mg/kg/day) and was compared to orally-administered gastrocepin (1 mg/kg twice daily, ie. a total of 2 mg/kg/day).

[4] = system: cryogenic injury of the oral mucosa; test: Healing of mouth ulcers caused by cryogenic injury in rats; type: in vivo; settings: 50 mg/kg; morphological analysis
Experimental: A model of mouth ulcers using ulcers caused by cryogenic injury of the inner surface of the cheek was used for this purpose. Tests were performed on 110 male rats weighing 180-200 g, with 10 animals in each group. Ulcers were created in experimental animals by pressing a metal rod of 2.5 mm in diameter cooled in liquid nitrogen to the mucosa for 10 seconds under ether anaesthesia. Animals were kept in separate cages, with normal food and water ad libitum. Treatment was administered by spraying of the mucous membrane of the mouth, 24 hours after wounding and then daily until healing was complete. Compound 2 was administered to the animals at a dose of 50 mg/kg (2 ml of aqueous solution). The following groups of animals were used:
The progress of wound healing was examined morphologically on days 1, 3, 7 and 14. On the day 3 the lesions were progressively worse, resulting in the growth of necrotic changes with the formation of a wide necrotic zone at the bottom of the wound, and growth and expansion of acute inflammation involving the muscle, skin and mucosa beyond the wound area. On day 7, the wounds in half of the animals were partially cleared of the necrotic mass, accompanied by the development of granulation tissue at the bottom of the wound and in the adjacent mucosa. […]

guinea pigs = test: Acute toxicity (LD50) in guinea pigs; type: in vivo; settings: oral administration
From the text: (§1) It is contemplated that in clinical use, treatment using oral tablets will take two to three weeks, with each patient receiving three tablets containing 0.6 g active compound per day.

wounds = test: Treatment of wounds in human patients; type: in vivo
Experimental: The effect of Compound 2 on the healing of different types of wounds was tested in human patients. A powder, solution or ointment of the substance containing the active agent in a proportion of 5% to 95% was applied to the wound. In all cases the wounds healed rapidly without infection or scarring.

rats = test: Acute toxicity (LD50) in rats; type: in vivo
From the text: as §1

[5] = 200 mg three times per day plus conventional therapy
[6] = patients with repeated myocardial infarct
[7] = Healing effect over the course of 3 days
[8] = Protective effect, 30 minutes before the test

CC[n+]1cn(C)c(C(=O)NC)c1C(=O)NC.O=S(=O)([O-])c1ccccc1 [Compound 2, 1-methyl-3-ethyl-4,5-bis(N-methylcarbamoyl)-imidazolium benzenesulfonate]
cholesterol levels (myocardial infarction; [5]): 96.5% | level of prothrombin (myocardial infarction; [5]): 91.3% | ejection fraction (myocardial infarction; 200 mg three times per day plus conventional therapy, 54.4±1.5% in the absence of the agent): 60.0±0.5% | malonic dialdehyde (myocardial infarction; 21st day, 1.3 before treatment, normal 1.21): 1 nmol/mL | superoxide dismutase levels (myocardial infarction; after therapy, 18-20 before treatment, norm 23): 25 conventional units | level of Schiff bases (myocardial infarction; after therapy, 75 before treatment, normal 60): 40 conventional units | allergic reactions or side effects (myocardial infarction; human, in vivo): did not develop any allergic reactions or side effects | cases in which cicatrisation took place one or two days earlier (myocardial infarction; [6]): 90% | time of cicatrisation on the average (myocardial infarction; [6]): 27 days | Level of creatine phosphate (μM/g) in rat myocardium ([1]; Oral 10 mg/kg, 3 days after stimulation): 1.09 ± 0.1 µM/g | Level of creatine phosphate (μM/g) in rat myocardium ([1]; Oral 10 mg/kg, Before stimulation): 0.80 ± 0.07 µM/g | Level of creatine phosphate (μM/g) in rat myocardium ([1]; intraperitoneal 10 mg/kg, 3 days after stimulation): 0.95 ± 0.06 µM/g | Level of creatine phosphate (μM/g) in rat myocardium ([1]; intraperitoneal 10 mg/kg, Before stimulation): 0.92 ± 0.08 µM/g | Level of creatine phosphate (μM/g) in rat myocardium ([1]; intraperitoneal 20 mg/kg, 3 days after stimulation): 1.07 ± 0.04 µM/g | Level of creatine phosphate (μM/g) in rat myocardium ([1]; intraperitoneal 20 mg/kg, Before stimulation): 1.04 ± 0.15 µM/g | animals showing complete epithelialization of the wound [2]: 60% | animals showing incomplete epithelialization [2]: 40% | % reduction of degree of ulceration [3, 7]: 50% | Average number of lesions per animal [3, 7]: 1.7 ± 0.2 | % reduction of degree of ulceration [3, 8]: 66% | % reduction of ulcerated area [3, 8]: 91% | Area of lesion [3, 8]: 2.8 ± 2.1 | Average number of lesions per animal ([3]; Protective effect, 30 minutes before the test, 20 mg/kg intraperitoneally): 2.4 ± 0.8 | healing of cryogenic injury of the oral mucosa compared to untreated controls [4]: more pronounced, earlier and more complete healing | LD50 (guinea pigs): more than 20000 mg/kg | wound outcome (wounds; Patient A, incisional wound 5 cm, 10% ointment in lanolin daily for 5 days, at 17 days): there was no scar, and the skin had fully recovered | wound outcome (wounds; Patient B, bed sores on the thigh, 0.5 g finely dispersed powder daily for 5 days, at 16 days): there was no scar, and the skin had fully recovered | wound outcome (wounds; Patient C, second degree thermal burn, 10% sterile aqueous solution, at 16 days): complete recovery of the skin, without scars | wound outcome (wounds; Patient D, abrasion of the left leg, 0.5 g powder mixed with equal amount of talc, at 12 days): the skin had healed completely | wound outcome (wounds; Patient E, erosion of the uterine cervix, 10% ointment on a tampon daily for two weeks, colposcopy at 18 days): the epithelium of the mucous membrane of the uterine cervix had fully recovered | LD50 (rats; given intraperitoneally): 1210 mg/kg | LD50 (rats; oral administration): more than 20000 mg/kg
